Experimental data from ChEMBL document CHEMBL1201862, “PubChem BioAssay data set” (2004).
Active and inactive are the calls of the source. For most assays here, no stated cut-off is given here; in the data, actives have a measured EC50 and inactives only a lower limit.

Assays:
[1] = biological target: T1, Carboxy-terminal domain RNA polymerase II polypeptide A small phosphatase 1 (Homo sapiens, UniProt Q9GZU7); assay: CTDSP1 inhibitors, concentration-response, biochemical, absorbance readout, ultra-high-throughput screen actives (AID 540297); assay type: functional
T1 sequence (Q9GZU7 whole entry): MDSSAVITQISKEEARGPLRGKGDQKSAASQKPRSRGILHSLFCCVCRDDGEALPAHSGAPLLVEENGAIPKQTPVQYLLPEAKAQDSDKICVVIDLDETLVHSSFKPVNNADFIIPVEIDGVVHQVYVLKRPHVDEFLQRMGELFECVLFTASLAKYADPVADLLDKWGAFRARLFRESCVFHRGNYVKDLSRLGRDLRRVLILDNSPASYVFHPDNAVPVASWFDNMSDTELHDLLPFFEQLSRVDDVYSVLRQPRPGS

[2] = luciferase reporter signal suppression in cells – H4 neuroglioma cells, luminescence, dose response (AID 1990); assay type: functional, cell-based
[3] = tested on: Streptococcus sp. 'group A'; assay: Streptococcus pyogenes SK(-)GAS viability under kanamycin – luminescence, BacTiterGlo, confirmation, counter-screen for streptokinase expression inhibitor project, dose response (AID 1900); assay type: functional, organism-based
[4] = Luminescence Cell-Based Dose Response HTS to Identify Inhibitors of 5'UTR Stem-Loop Driven Prion Protein mRNA Translation in H4 Neuroglioblastoma Cells. [Related pubchem assays: 1827 (Project Summary), 1813 (Primary HTS)]; assay type: functional
[5] = alpha-synuclein stem-loop luciferase translation blockers – H4 neuroglioma cells, luminescence, confirmation (AID 1988); assay type: functional, cell-based
Streptokinase A = biological target: T2, Streptokinase A (Streptococcus pyogenes serotype M1, UniProt P10520); assay: viability-normalized secreted streptokinase activity reduction – plasminogen activation absorbance, OD405, dose response (AID 1914); assay type: functional, Streptococcus pyogenes M1 GAS;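 further: secreted streptokinase activity via plasminogen activation per viability signal from cell pellet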
T2 sequence (P10520 whole entry): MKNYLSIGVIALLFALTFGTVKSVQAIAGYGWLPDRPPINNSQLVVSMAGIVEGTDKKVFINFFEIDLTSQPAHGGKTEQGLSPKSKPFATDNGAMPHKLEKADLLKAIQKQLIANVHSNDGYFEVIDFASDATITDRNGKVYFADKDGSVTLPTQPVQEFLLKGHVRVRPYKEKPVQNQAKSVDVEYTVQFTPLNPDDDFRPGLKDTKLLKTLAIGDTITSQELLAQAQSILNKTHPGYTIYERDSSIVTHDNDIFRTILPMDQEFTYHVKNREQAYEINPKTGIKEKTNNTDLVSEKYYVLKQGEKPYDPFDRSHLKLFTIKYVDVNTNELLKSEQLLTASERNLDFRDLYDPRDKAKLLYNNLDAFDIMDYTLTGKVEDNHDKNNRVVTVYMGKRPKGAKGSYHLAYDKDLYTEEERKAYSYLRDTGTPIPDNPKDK

Streptococcus = assay: GAS UMAA2166 growth inhibition – luminescence, BacTiterGlo, counter-screen for streptokinase expression inhibitor project, dose response (AID 1915); assay type: functional, organism-based;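 further: potency for reduction of bacterial viability or growth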
[6] = biological target: T3, Heat shock factor protein 1 (Mus musculus, UniProt P38532); assay: enhancement of HSF1-driven luciferase signal – cell-based, NIH3T3, luminescence, dose retest, confirmation (AID 435004); assay type: functional;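 further: stress induced by proteasome inhibitor MG132 added 30 min after compound; luciferase reporter driven by HSF1 response element in NIH3T3 cells; actives raise luminescence as potentiators of the MG132 stress response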
T3 sequence (P38532 whole entry): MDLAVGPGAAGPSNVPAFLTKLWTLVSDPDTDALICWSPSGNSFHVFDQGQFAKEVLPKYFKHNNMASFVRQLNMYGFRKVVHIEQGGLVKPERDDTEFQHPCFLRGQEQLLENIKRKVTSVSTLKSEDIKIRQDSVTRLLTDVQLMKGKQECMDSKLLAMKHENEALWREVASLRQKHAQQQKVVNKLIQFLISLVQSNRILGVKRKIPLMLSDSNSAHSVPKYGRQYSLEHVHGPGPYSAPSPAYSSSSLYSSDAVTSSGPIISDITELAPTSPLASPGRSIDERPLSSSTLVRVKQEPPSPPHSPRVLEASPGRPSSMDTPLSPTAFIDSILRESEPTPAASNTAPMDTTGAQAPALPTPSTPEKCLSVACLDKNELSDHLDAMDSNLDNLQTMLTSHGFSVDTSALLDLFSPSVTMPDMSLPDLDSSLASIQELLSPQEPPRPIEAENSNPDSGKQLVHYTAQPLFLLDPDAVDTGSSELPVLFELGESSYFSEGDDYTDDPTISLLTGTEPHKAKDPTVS

INS1 = assay: INS-1E survival protection against cytokine death – cell-based, luminescence, retest, dose response (AID 449756); assay type: functional; settings: Rattus norvegicus;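 further: cell death triggered by IL-1 beta plus TNF-alpha plus IFN-gamma mixture; protective hits raise ATP signal compared with cytokine alone wells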
[7] = reduction of Shn3 3'UTR-driven luciferase in osteoblasts – cell-based, Clone20 osteoblasts, firefly luciferase, cherry-picked, dose response (AID 624132); assay type: functional;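 further: firefly luciferase luminescence from reporter carrying the Shn3 3'UTR in osteoblasts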
[8] = viability of uninfected HEp-2 cells – cell-based, HTS, cytotoxicity control for RSV inhibitor project, dose response (AID 2410); assay type: functional; settings: human respiratory syncytial virus
[9] = biological target: T4, Replicative DNA helicase DnaB (Mycobacterium tuberculosis, UniProt P9WMR3); assay: DnaB intein splicing inhibitors, dose response, biochemical, cell-free fluorescence (AID 449749); assay type: functional
T4 sequence (P9WMR3 whole entry): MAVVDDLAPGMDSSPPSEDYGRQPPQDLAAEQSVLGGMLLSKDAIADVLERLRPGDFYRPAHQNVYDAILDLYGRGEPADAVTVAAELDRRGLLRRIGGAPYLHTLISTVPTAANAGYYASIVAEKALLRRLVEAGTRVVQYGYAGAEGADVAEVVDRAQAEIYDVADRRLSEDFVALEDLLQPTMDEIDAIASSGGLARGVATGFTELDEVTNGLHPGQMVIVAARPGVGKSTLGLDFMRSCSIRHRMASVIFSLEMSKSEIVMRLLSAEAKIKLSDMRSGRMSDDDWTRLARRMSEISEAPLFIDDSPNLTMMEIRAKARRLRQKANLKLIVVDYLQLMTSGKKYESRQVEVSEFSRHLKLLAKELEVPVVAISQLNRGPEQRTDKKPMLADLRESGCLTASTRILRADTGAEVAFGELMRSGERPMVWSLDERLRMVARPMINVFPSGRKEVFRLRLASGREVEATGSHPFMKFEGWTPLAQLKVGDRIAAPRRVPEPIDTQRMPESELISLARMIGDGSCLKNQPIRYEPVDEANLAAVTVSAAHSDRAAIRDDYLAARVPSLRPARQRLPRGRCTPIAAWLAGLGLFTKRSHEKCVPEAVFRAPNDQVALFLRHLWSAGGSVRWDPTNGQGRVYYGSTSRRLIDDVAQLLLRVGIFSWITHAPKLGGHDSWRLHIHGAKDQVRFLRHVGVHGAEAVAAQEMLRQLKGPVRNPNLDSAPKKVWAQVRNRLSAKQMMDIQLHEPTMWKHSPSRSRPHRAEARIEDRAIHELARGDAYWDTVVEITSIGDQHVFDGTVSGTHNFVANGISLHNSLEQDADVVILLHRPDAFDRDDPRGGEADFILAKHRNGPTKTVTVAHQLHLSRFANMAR

Protein RecA = biological target: T5, Protein RecA (Mycobacterium tuberculosis, UniProt P9WHJ3); assay: Fluorescence Cell-Free Homogeneous Dose Retest to Identify Inhibitors of RecA-Intein Splicing Activity. [Related pubchem assays (depositor defined):AID2097, AID2223, AID489010, AID492950]; assay type: functional
T5 sequence (P9WHJ3 whole entry): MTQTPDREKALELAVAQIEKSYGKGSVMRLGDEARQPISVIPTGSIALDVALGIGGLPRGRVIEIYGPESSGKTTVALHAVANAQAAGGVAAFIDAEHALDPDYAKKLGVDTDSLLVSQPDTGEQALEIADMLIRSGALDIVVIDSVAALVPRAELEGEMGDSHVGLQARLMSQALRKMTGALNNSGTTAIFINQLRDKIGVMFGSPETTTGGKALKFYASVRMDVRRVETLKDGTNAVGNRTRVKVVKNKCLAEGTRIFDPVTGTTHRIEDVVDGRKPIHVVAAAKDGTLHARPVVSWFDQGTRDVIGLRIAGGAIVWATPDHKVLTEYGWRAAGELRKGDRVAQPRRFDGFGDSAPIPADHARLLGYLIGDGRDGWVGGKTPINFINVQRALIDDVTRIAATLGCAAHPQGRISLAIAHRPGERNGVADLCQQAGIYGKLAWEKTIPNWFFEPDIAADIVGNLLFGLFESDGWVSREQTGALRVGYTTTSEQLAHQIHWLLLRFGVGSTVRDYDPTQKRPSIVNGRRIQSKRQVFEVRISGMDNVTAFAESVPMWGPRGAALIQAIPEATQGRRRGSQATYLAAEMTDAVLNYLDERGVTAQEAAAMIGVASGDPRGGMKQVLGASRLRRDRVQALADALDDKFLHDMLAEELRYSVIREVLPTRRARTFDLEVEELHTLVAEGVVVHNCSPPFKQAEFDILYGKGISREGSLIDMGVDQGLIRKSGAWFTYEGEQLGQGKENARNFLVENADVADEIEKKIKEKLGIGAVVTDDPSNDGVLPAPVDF

[10] = microbe, parasite or virus in culture; assay type: functional; settings: Mycobacterium tuberculosis
[11] = Trypanosoma cruzi growth suppression in host cells – NIH3T3 host cells, beta-gal luminescence, confirmation (AID 2044); assay type: functional, cell-based;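 further: intracellular parasites grown in NIH/3T3 mouse fibroblasts as host cells; luminescent beta-galactosidase reporter signal from transgenic T. cruzi replicating inside host cells; inhibitors lower the luminescence signal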
[12] = NIH3T3 cell viability loss – ATP luminescence, mouse fibroblasts, counter-screen, dose response (AID 2010); assay type: functional, cell-based;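 further: cells exposed to compound for about 90 hours before reading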
[13] = Luminescence Cell-Based Dose Retest to Confirm Inhibitors of Cancer Stem Cells. [Related pubchem assays (depositor defined):AID2717, AID2721]; assay type: functional; settings: Homo sapiens

Row | Structure (SMILES) | EC50 [3] | EC50 (Streptokinase A) | EC50 (Streptococcus) | AC50 [9] | EC50 (Protein RecA) | other results
1 | O=C(Cn1nnc(-c2ccc(NC(=O)c3ccccc3F)cc2)n1)NCc1ccc(F)cc1 | – | – | – | – | – | IC50 [1]: 4.75 µM (active)
2 | NCCCn1c(C(=O)c2cc(Cl)c(N)c(Cl)c2)c2ccc([N+](=O)[O-])cc2[n+]1[O-] | 2.8 µM (active) | > 150 µM (not active) | 5.08 µM (active) | – | – | EC50 [2]: 5.24 µM (active); EC50 [4]: > 120 µM (not active); EC50 [5]: 2.06 µM (active); EC50 [6]: 46.8 µM (active); AC50 (INS1): 4.16 µM (active)
3 | CN(C)S(=O)(=O)c1cccc(NC(=O)COC(=O)/C=C/c2ccco2)c1 | – | – | – | – | – | IC50 [1]: 21.1 µM (active)
4 | O=C(CSc1nnc(-c2ccc(S(=O)(=O)N3CCCC3)cc2)o1)NCc1ccco1 | – | – | – | – | – | IC50 [1]: 16.3 µM (active)
5 | CCCCN1CC(COCc2ccccc2)Oc2cccc(Oc3cc(C)c(C)c(C)c3)c2S1(=O)=O (stereo not given) | – | – | – | – | – | AC50 [7]: 9.16 µM (active)
6 | Cc1c(Cl)c(C(F)F)nn1CC(=O)NC1C(=O)N2C(C(=O)O)=C(CSc3nnnn3C)CSC12 (stereo not given) | < 0.06 µM (active) | – | 0.106 µM (active) | – | – | IC50 [1]: 6.48 µM (active)
7 | Nc1ccc(-c2cn3cccnc3n2)cc1 | > 150 µM (not active) | > 150 µM (not active) | > 150 µM (not active) | – | – | –
8 | O=C(N/N=C/c1ccc(-c2ccccc2[N+](=O)[O-])o1)[C@H]1C[C@@H]1c1ccccc1 | – | – | – | 8.14 µM (active) | 18.9 µM (active) | CC50 [8]: 18.3 µM (active)
9 | Fc1cccc2sc(Nc3nc4cc5c(cc4s3)OCO5)nc12 | > 150 µM (not active) | > 150 µM (not active) | > 150 µM (not active) | – | – | CC50 [10]: > 40 µM (active)
10 | Cc1csc(=O)n1CC(=O)OCC(=O)c1c(N)n(C)c(=O)n(C)c1=O | – | – | – | – | – | AC50 [7]: 27.1 µM (active)
11 | Cc1n[nH]c(O)c1C(c1ccc(O)c(Br)c1)c1c(C)n[nH]c1O | – | – | – | 0.326 µM (active) | 0.232 µM (active) | –
12 | CC1=NN(c2ccccc2)C(=O)C1 [EDARAVONE] | – | – | – | 2.75 µM (active) | 2.95 µM (active) | –
13 | C/C(N)=C(/C#N)C(=O)CSc1nc2scc(-c3ccccc3)c2c(=O)n1C | 1.8 µM (active) | > 150 µM (not active) | 11.9 µM (active) | – | – | –
14 | CC(C)(C)c1ccc(S(=O)(=O)N2CCC(c3nc4cc(Cl)ccc4[nH]3)CC2)cc1 | 5.2 µM (active) | 4.13 µM (active) | 45.8 µM (active) | – | – | EC50 [11]: 2.97 µM (active); EC50 [12]: > 60 µM (not active)
15 | FC(F)(F)c1ccc(C2[C@H]3CN(Cc4cccnc4)[C@H](c4ccccc4)C34CC2(c2cccnc2)C4)cc1 (stereo not given in full) | 2.85 µM (active) | 6.65 µM (active) | 12 µM (active) | 3.46 µM (active) | 24.1 µM (active) | AC50 [13]: 3.07 µM (active)
16 | CCCOC(=O)c1ccc(OC(=O)c2ccco2)cc1 | – | – | – | 13 µM (active) | 11.8 µM (active) | –
17 | Oc1cccc(Nc2nc(-c3ccccc3Cl)nc3ccccc23)c1 | – | – | – | 138 µM (active) | > 380 µM (inactive) | CC50 [8]: 27.1 µM (active)
18 | COc1ccc2c(c1)[N+](C)(C)C(C)(C)C=C2C | – | – | – | – | – | IC50 [1]: 3.14 µM (active)
